Experimental data from ChEMBL document CHEMBL3879904, “Selective sphingosine 1 phosphate receptor modulators and methods of chiral synthesis” (2013).
pEC50: −log10 of the molar value.

How the values were obtained:
Rattus norvegicus = assay: Antiinflammatory activity in Sprague-Dawley rat assessed as dose required to produce 50% lymphopenia administered orally via gavage for 3 to 5 days measured 24 hrs post last dose; type: functional
[1] = Toxicity in Sprague-Dawley rat assessed as dose required to produce 10% increase in lung to terminal body weight ratio administered orally via gavage for 5 to 14 days measured 24 hrs post last dose; conditions: in vivo, po
[2] = Therapeutic index, ratio of dose required to produce 10% increase in lung to terminal body weight ratio administered for 14 days to dose required to produce 50% lymphopenia in Sprague-Dawley rat; conditions: in vivo, read-out: TI
[3] = biological target: Sphingosine 1-phosphate receptor 1 (Homo sapiens, UniProt P21453); assay: Agonist activity at human S1P1 expressed in CRE-bla CHOK1 cells assessed as inhibition of forskolin-induced cAMP formation preincubated for 4 hrs followed by FRET-based beta-lactamase fluorescent substrate addition measured after 2 hrs; type: functional, cell-based, CHO-K1
Mus musculus [4] = assay: Antiinflammatory activity in Influenza A virus (A/WSN/33) infected C57Bl/6 mouse model assessed as suppression of inflammatory cell infiltration into lungs at 0.5 mg/kg administered intratracheally 1 hr post viral infection measured after 48 hrs relative to control; type: functional; conditions: C57Bl/6, inhaled or nasal
[5] = Oral bioavailability in Sprague-Dawley rat at 2 mg/kg administered via gavage by HPLC-LC/MS/MS method; type: ADME, organism-based; conditions: in vivo
Mus musculus [6] = assay: Antiinflammatory activity in C57BL6 mouse assessed as induction of lymphopenia by measuring CD4 or CD8-positive T cell levels at 1 mg/kg, po administered via gavage measured over 24 hrs by FACS analysis relative to control; type: functional

Sequence of Sphingosine 1-phosphate receptor 1 (P21453 whole entry): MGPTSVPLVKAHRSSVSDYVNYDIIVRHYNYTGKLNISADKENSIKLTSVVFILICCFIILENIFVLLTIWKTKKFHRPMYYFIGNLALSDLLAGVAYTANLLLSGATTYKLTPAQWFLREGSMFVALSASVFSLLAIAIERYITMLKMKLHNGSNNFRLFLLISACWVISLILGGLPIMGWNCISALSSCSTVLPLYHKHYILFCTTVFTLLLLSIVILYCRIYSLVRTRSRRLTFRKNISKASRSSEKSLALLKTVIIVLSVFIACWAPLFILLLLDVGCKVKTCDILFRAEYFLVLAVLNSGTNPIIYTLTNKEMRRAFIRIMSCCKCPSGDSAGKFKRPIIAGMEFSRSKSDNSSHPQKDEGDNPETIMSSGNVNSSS

SMILES	Activity (Rattus norvegicus) [mg/kg]	Activity [1] [mg/kg]	also measured
CC(C)Oc1ccc(-c2nc(-c3cccc4c3CC[C@@H]4NC(=O)N3CC(O)C3)no2)cc1C#N	2	11.3	–
CC(C)Oc1ccc(-c2nc(-c3cccc4c3CC[C@H]4NS(=O)(=O)CCO)no2)cc1C#N	0.07	1.1	–
CC(C)Oc1ccc(-c2nc(-c3cccc4c3CC[C@@H]4NS(=O)(=O)CCO)no2)cc1C#N	0.5	5	–
CC(C)Oc1ccc(-c2nc(-c3cccc4c3CC[C@@H]4N)no2)cc1C#N	0.1	2	–
CC(C)Oc1ccc(-c2nc(-c3cccc4c3CC[C@H]4N)no2)cc1C#N.Cl	0.1	0.2	selectivity ratio at 336 h [2]: 2
CC(C)Oc1ccc(-c2nc(-c3cccc4c3CC[C@@H]4NC(=O)N(C)C)no2)cc1C#N	–	–	pEC50 [3]: 9.30 to 10.30
CC(C)Oc1ccc(-c2nc(-c3cccc4c3CC[C@H]4NC(=O)N3CC(O)C3)no2)cc1C#N	0.9	21.3	–
CC(C)Oc1ccc(-c2nc(-c3cccc4c3CC[C@H]4NCC(=O)N(C)C)no2)cc1C#N.Cl	0.4	5.5	–
CC(C)Oc1ccc(-c2nc(-c3cccc4c3CC[C@@H]4NCC(=O)N(C)C)no2)cc1C#N	0.3	0.3	–
CC(C)Oc1ccc(-c2nc(-c3cccc4c3CC[C@H]4NCC(=O)N3CCOCC3)no2)cc1C#N	–	–	pEC50 [3]: 9.30 to 10.30
COCCS(=O)(=O)N[C@H]1CCc2c(-c3noc(-c4ccc(OC(C)C)c(C#N)c4)n3)cccc21	0.25	5	–
COCCS(=O)(=O)N[C@@H]1CCc2c(-c3noc(-c4ccc(OC(C)C)c(C#N)c4)n3)cccc21	0.07	2.1	–
CC(C)Oc1ccc(-c2nc(-c3cccc4c3CC[C@H]4NC(=O)c3ccc(Br)cc3)no2)cc1C#N	–	–	pEC50 [3]: < 8.30
CC(C)Oc1ccc(-c2nc(-c3cccc4c3CC[C@H]4NCCO)no2)cc1C#N	0.15	2.8	inhibition in vivo at 0.5 mg/kg (Mus musculus [4]): 40%
CCOc1ccc(-c2nc(-c3cccc4c3CCC4NCCO)no2)cc1OCC (racemic)	–	–	bioavailability [5]: 21%; AUEC (Mus musculus [6]): 116%
CC(C)Oc1ccc(-c2nc(-c3cccc4c3CC[C@@H]4NCCO)no2)cc1C#N [OZANIMOD]	0.15	2.7	–
